Like-named read-outs stand apart in the source and are kept apart here. No end group written: not given here.
Legend:
[1] = tested on: HIV-1 LAI; settings: cited from earlier work
[2] = tested on: HIV particles; settings: CD4+ target cells (refs 1, 4, 13, 26); cited from earlier work
[3] = target: T1, full-length nucleolin (Homo sapiens, UniProt P19338); assay: Biotinylated HB-19A binding to in vitro translated full-length nucleolin (avidin-agarose); settings: amino acids 1 to 707, 0.5 or 1 μM biotinylated HB-19A (FIG. 6)
T1 construct: labeled full length nucleolin, N-terminal and the C-terminal parts containing amino acids 1 to 707; vector-encoded His leader of pcDNA4His/Max C (only the vector name is printed); made in house; host or cells: cell-free: TNT coupled rabbit reticulocyte lysate (Promega), 35S-Met/Cys labelled, used crude
Experimental: (§1) In vitro transcription and translation of human nucleolin. The TNT coupled reticulocyte lysate system (Promega) was used to produce the wild-type nucleolin (pcDNA4 Nuc) and the N- and C-terminal parts of nucleolin (pcDNA4 NucN and pcDNA4 NucC containing amino acids 1-308 and 309-707) by in vitro transcription/translation. Reactions were performed by using 2 μg of each plasmid and 20 μCi of […].
(§2) To assay the HB-19A binding capacity of the generated nucleolin and nucleolin truncated constructs, 25 μl of translation products were diluted in 25 μl of modified BI buffer (20 mM Tris-HCl, pH 7.6,100 mM NaCl, 50 mM KCl, 2 mM EDTA, 2% Triton X-100,1000 U/ml aprotinin), centrifuged at 12,000 g for 10 min at 4° C. and diluted in 150 μl of PBS. Binding reactions were performed by incubating 200 μl of each diluted lysates with the biotinylated HB-19A for 1 h at 4° C. Complexes formed between nucleolin deletion constructs and biotinylated HB-19A were isolated by purification of the extracts using avidin-agarose (100 μl) in PBS-EDTA (12). After 2 h of incubation at 4° C., the samples were washed extensively with PBS-EDTA. The purified proteins were eluted by heating in the electrophoresis sample buffer containing SDS and analyzed by SDS-PAGE.

[4] = tested on: HIV-1 LAI; assay: HIV-1 LAI infection in HeLa P4 cells (LTR-lacZ, β-galactosidase); format: cell-based; settings: HB-19A 1 μM (FIG. 9)
Experimental: Assay of HIV infection in HeLa CD4+cells. HIV-1 LAI infection was monitored indirectly in HeLa-CD4-LTR-/ac Z cells (HeLa P4 cells) containing the bacterial lac Z gene under the control of HIV-1 LTR. HIV-1 entry and replication result in the activation of the HIV-1 LTR leading to the expression of p-galactosidase. At 48 h post-infection, cells were lysed and assayed for β-galactosidase activity using the chlorophenol-red-β-D-galactopyranoside as a substrate. The optical density was measured at 570 nm (1). The HIV-1 Ba-L infection was monitored in HeLa-CD4-LTR-/ac Z cells but expressing also CCR5 (HeLa F4-C5 cells) as above (1).
Assay of peptides for their activity. Each peptide is tested at different concentrations to investigate their capacity to inhibit HIV infection. Each peptide is investigated for its binding capacity to the HB-19, using biotin-coupled HB-19.

[5] = target: T2, N-terminal part of nucleolin (Homo sapiens, UniProt P19338); assay: Biotinylated HB-19A binding to in vitro translated N-terminal part of nucleolin; settings: amino acids 1 to 308, contains the acidic stretches (FIG. 6)
T2 construct: pcDNA4 NucN and pcDNA4 NucC containing amino acids 1-308 and 309-707; vector-encoded His leader of pcDNA4His/Max C (only the vector name is printed); made in house; host or cells: cell-free: TNT coupled rabbit reticulocyte lysate (Promega), 35S-Met/Cys labelled, used crude
Experimental: as §1, §2

[6] = tested on: RGG domain of nucleolin; assay: Biotinylated HB-19A binding to GST constructs of nucleolin containing the RGG domain; design: species or system human; settings: constructs containing the RGG domain (FIG. 8, lanes 1234G, R234G, G)
Experimental: Expression and purification of recombinant nucleolin constructs. Escherichia coli (E. coli) BL21 (DE3) cells were transformed with each pGEX-N3 plasmid coding for truncated derivatives of the C-terminal part of human nucleolin. Cells were grown overnight at 37° C. in 100 ml of Terrific Broth containing 100 μg of ampicillin per ml. After 1:50 dilution in 100 ml of fresh medium, cells were grown at 30° C. to a 600 nm optical density of approximately 0.5 (6 h) and induced with 0.5 mM isopropyl-1-thio-D-galactopyranoside (IPTG) for an additional 2 h. Bacteria were pelleted at 4,000 g for 10 min at 4° C., resuspended in 5 ml of PBS containing 0.2 mM phenylmethylsulphonyl flouride (PMSF) and 1 mM DTT, and frozen at −20° C. overnight. […] The presence of proteins in cell extracts was monitored by SDS-Page with Coomassie blue staining, and their respective concentration estimated and adjusted.
To assay HB-19A binding capacity, bacterial extracts were first diluted 5-fold in PBS-EDTA before centrifugation at 12,000 g for 10 min at 4° C. […] The purified proteins were eluted by heating in the electrophoresis sample buffer containing SDS and analyzed by immunoblotting using anti-GST monoclonal antibody B-14 (Santa Cruz Biotechnology, Inc.).

[7] = tested on: CHO 618 cells; assay: Biotinylated HB-19A binding to mutant CHO 618 cells; design: species or system Chinese hamster; settings: CHO 618 devoid of heparan- and chondroitin-sulfate proteoglycans (FIG. 3B)
Experimental: (§3) Assay of HB-19A binding to cells. Cells were plated at 10^4 cells/well in 96-well-plates for the ^1251-labeled HB-19A binding or at 10^5 cells/well, in 24-well-plates for the biotinylated HB-19A binding. Twenty four hours later, binding experiments were performed after incubation of the cell monolayers in fresh culture medium for 1 h at room temperature (about 21° C.) in order to cool cells. It should be noted that intracellular entry of HB-19A is inhibited more than 90% at room temperature. Cells were incubated (30 min at room temperature) with different concentrations of the ^125I-labeled HB-19A or the biotinylated HB-19A before washing cells in culture medium containing 10% FCS. For total amount of binding (specific and non-specific), cells were washed 7 times with culture medium. For specific binding measurements, cells were first washed 3 times in culture medium supplemented with 150 mM NaCl thus bringing the final concentration of NaCl to 300 mM followed by 4 washings in culture medium. Washed cells were processed to reveal either the ^125I-labeled HB-19A or the biotinylated HB-19A. For the ^1251-labeled HB-19A binding, cell monolayers were extracted in 1% SDS and the radioactivity was measured in an automatic gamma counter (LKB Wallac Clini Gamma 1272). […] Finally, ortho-phenylenediamine solution was added in the dark and the absorbance was measured at 405 nm.

[8] = tested on: CHO K1 cells; assay: Biotinylated HB-19A binding to wild type CHO K1 cells; design: species or system Chinese hamster; settings: wild type CHO K1 cells (FIG. 3B)
Experimental: as §3

[9] = tested on: HIV; settings: 1 μM HB-19A, different types of cells (refs 1, 10); cited from earlier work
[10] = tested on: HeLa P4 cells; assay: HB-19A binding to HeLa P4 cells (125I-labeled HB-19A); design: species or system human; settings: HeLa P4 cells washed at 300 mM NaCl (FIG. 3A)
Experimental: as §3

[11] = tested on: C-terminal part of nucleolin; assay: Biotinylated HB-19A binding to in vitro translated C-terminal part of nucleolin; design: species or system human; settings: amino acids 309-707 (FIG. 6)
Experimental: as §1, §2

T2 sequence (P19338 1-308): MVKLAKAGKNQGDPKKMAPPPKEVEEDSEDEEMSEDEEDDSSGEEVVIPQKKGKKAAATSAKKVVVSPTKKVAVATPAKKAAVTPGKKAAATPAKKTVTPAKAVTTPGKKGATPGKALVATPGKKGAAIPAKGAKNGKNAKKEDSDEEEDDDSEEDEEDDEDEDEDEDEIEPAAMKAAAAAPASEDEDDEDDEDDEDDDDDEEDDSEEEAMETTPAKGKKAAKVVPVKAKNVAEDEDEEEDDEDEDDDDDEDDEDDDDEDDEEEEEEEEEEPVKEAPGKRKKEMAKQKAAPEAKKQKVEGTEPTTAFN
RGG domain of nucleolin, sequence (P19338 648-710 limits assumed): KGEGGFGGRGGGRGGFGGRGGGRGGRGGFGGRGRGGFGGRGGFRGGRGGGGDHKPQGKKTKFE
T1 sequence (P19338 whole entry, the tested form may be a part): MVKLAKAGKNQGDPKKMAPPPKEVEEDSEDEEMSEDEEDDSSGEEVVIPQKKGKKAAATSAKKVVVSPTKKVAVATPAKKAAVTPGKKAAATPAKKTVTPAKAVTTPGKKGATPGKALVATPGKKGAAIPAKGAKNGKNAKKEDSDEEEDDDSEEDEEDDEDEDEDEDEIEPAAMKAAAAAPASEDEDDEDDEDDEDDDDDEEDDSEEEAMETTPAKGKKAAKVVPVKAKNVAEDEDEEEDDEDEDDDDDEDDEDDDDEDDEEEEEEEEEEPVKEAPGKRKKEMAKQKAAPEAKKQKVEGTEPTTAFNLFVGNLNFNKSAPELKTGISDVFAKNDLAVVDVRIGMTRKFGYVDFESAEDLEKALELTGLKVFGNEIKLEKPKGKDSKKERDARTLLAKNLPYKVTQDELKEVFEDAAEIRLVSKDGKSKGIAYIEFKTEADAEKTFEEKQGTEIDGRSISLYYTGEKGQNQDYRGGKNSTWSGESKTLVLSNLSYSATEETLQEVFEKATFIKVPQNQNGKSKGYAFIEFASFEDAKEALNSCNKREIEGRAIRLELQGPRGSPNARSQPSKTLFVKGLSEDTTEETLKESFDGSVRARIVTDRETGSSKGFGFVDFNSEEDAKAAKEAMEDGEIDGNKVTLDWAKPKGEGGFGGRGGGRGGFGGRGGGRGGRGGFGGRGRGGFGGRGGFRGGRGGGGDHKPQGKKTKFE
C-terminal part of nucleolin, sequence (P19338 312-710 limits assumed): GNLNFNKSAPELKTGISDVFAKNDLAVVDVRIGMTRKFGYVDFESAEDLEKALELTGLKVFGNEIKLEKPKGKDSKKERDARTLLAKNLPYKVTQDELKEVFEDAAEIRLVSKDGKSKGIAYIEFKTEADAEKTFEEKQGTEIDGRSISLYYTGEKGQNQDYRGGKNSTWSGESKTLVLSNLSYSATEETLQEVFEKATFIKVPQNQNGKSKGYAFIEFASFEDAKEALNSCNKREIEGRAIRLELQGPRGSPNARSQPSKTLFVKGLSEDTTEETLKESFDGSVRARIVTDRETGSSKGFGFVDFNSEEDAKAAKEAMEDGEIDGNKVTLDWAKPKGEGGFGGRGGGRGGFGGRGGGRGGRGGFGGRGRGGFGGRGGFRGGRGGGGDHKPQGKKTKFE

## 5[Kψ(CH2N)PR]-TASP [HB-19]
[1]; HeLa P4 cells (refs 1, 4)
  HIV entry at the level of HIV attachment, pretreatment of cells: inhibition of HIV entry
[1]; several hours after removal (ref 1)
  resistance to HIV of pretreated cells after removal of the medium containing the inhibitor: remain resistant
[2]
  anchorage of HIV particles: inhibited

## HB-19A: new generation of HB-19 presenting pentavalently the Kψ(CH2N)PR moiety coupled to a modified TASP template (peptide Lys-Pro-Arg; chain KKKKA; also: Kψ(CH2N)P reduced bond, pentavalent on modified TASP template)
[3]
  binding to full-length nucleolin: bind
[4]
  HIV entry at the level of HIV attachment, pretreatment of cells: inhibition of HIV entry
[5]
  binding to N-terminal part of nucleolin: did not bind at all
[6]
  HB-19A concentration at which binding reaches maximum value: 5 µM
[7]
  HB-19A binding profile compared with CHO K1: no significant difference
[8]
  concentration at which binding reaches saturation: 1 µM
[9]
  inhibition of HIV infection: more than 95%
[10]
  concentration at which specific binding reaches saturation: 1 µM
[11]
  binding to C-terminal part of nucleolin: bound efficiently
[2]
  anchorage of HIV particles: inhibited

## RRWCYRKDKPYRKCR [TW70, anti-HIV cyclic peptide specific for CXCR4, reference compound]
[2]
  anchorage of HIV particles: inhibited

## fibroblast growth factor 2: growth factor which binds heparan sulfate proteoglycans
[2]
  anchorage of HIV particles: inhibited
